Results as given in patent US9944602B2, “Piperidinone herbicides” (E. I. DU PONT DE NEMOURS AND COMPANY, priority 2014, dated 2018).

Legend:
Type in all cases: in vivo
[1] = system: ryegrass, Italian (Italian ryegrass, Lolium multiflorum); test: Test A postemergence ryegrass, Italian; settings: 0 to 100 scale, 0 is no effect, 100 is complete control
Text: (§1) Seeds of plant species selected from barnyardgrass (Echinochloa crus-galli), kochia (Kochia scoparia), ragweed (common ragweed, Ambrosia elatior), ryegrass, Italian (Italian ryegrass, Lolium multiflorum), crabgrass, large (large crabgrass, Digitaria sanguinalis), foxtail, giant (giant foxtail, Setaria faberii), morningglory (Ipomoea spp.), pigweed (Amaranthus retroflexus), velvetleaf (Abutilon theophrasti), wheat (Triticum aestivum), and corn (Zea mays) were planted into a blend of loam soil and sand and treated preemergence with a directed soil spray using test chemicals formulated in a non-phytotoxic solvent mixture which included a surfactant.
(§2) At the same time, plants selected from these crop and weed species and also blackgrass (Alopecurus myosuroides), and galium (catchweed bedstraw, Galium aparine) were planted in pots containing the same blend of loam soil and sand and treated with postemergence applications of test chemicals formulated in the same manner. Plants ranged in height from 2 to 10 cm and were in the one- to two-leaf stage for the postemergence treatment. Treated plants and untreated controls were maintained in a greenhouse for approximately 10 d, after which time all treated plants were compared to untreated controls and visually evaluated for injury. Plant response ratings, summarized in Table A, are based on a 0 to 100 scale where 0 is no effect and 100 is complete control. A dash (-) response means no test result.

kochia (Kochia scoparia) [2] = test: Test A preemergence kochia; settings: 0 to 100 scale, 0 no effect, 100 complete control
Text: as §1, §2

[3] = system: ragweed (common ragweed, Ambrosia elatior); test: Test A postemergence ragweed; settings: 0 to 100 scale, 0 is no effect, 100 is complete control
Text: as §1, §2

[4] = system: pigweed (Amaranthus retroflexus); test: Test A postemergence pigweed; settings: 0 to 100 scale, 0 is no effect, 100 is complete control
Text: as §1, §2

kochia (Kochia scoparia) [5] = test: Test A postemergence kochia; settings: 0 to 100 scale, 0 is no effect, 100 is complete control
Text: as §1, §2

[6] = system: wheat (Triticum aestivum); test: Test A postemergence wheat; settings: 0 to 100 scale, 0 is no effect, 100 is complete control
Text: as §1, §2

[7] = system: pigweed (Amaranthus retroflexus); test: Test A preemergence pigweed; settings: 0 to 100 scale, 0 no effect, 100 complete control
Text: as §1, §2

rice (Oryza sativa) = test: Test B flooded paddy test rice; settings: Table B, Flood, scale 0 to 100
Method: (§3) Plant species in the flooded paddy test selected from rice (Oryza sativa), sedge, umbrella (small-flower umbrella sedge, Cyperus difformis), ducksalad (Heteranthera limosa), and barnyardgrass (Echinochloa crus-galli) were grown to the 2-leaf stage for testing. At the time of treatment, test pots were flooded to 3 cm above the soil surface, treated by application of test compounds directly to the paddy water, and then maintained at that water depth for the duration of the test. Treated plants and controls were maintained in a greenhouse for 13 to 15 d, after which time all species were compared to controls and visually evaluated. […] A dash (-) response means no test result.

[8] = system: foxtail, giant (giant foxtail, Setaria faberii); test: Test A preemergence foxtail, giant; settings: 0 to 100 scale, 0 no effect, 100 complete control
Text: as §1, §2

[9] = system: ryegrass, Italian (Italian ryegrass, Lolium multiflorum); test: Test A preemergence ryegrass, Italian; settings: 0 to 100 scale, 0 no effect, 100 complete control
Text: as §1, §2

[10] = system: foxtail, giant (giant foxtail, Setaria faberii); test: Test A postemergence foxtail, giant; settings: 0 to 100 scale, 0 is no effect, 100 is complete control
Text: as §1, §2

[11] = system: ragweed (common ragweed, Ambrosia elatior); test: Test A preemergence ragweed; settings: 0 to 100 scale, 0 no effect, 100 complete control
Text: as §1, §2

[12] = system: barnyardgrass (Echinochloa crus-galli); test: Test B flooded paddy test barnyardgrass; settings: Table B, Flood, scale 0 to 100
Method: as §3

[13] = system: barnyardgrass (Echinochloa crus-galli); test: Test A preemergence barnyardgrass; settings: 0 to 100 scale; for Barnyardgrass plant response rating: 0 no effect, 100 complete control; for Plant response rating, Barnyardgrass: 0 is no effect, 100 is complete control
Text: as §1, §2

[14] = system: galium (catchweed bedstraw, Galium aparine); test: Test A postemergence galium; settings: 0 to 100 scale, 0 is no effect, 100 is complete control
Text: as §1, §2

[15] = system: blackgrass (Alopecurus myosuroides); test: Test A postemergence blackgrass; settings: 0 to 100 scale, 0 is no effect, 100 is complete control
Text: as §1, §2

corn (Zea mays) = test: Test A postemergence corn; settings: 0 to 100 scale, 0 is no effect, 100 is complete control
Text: as §1, §2

[16] = system: ducksalad (Heteranthera limosa); test: Test B flooded paddy test ducksalad; settings: Table B, Flood, scale 0 to 100
Method: as §3

[17] = system: barnyardgrass (Echinochloa crus-galli); test: Test A postemergence barnyardgrass; settings: 0 to 100 scale, 0 is no effect, 100 is complete control
Text: as §1, §2

[18] = system: sedge, umbrella (small-flower umbrella sedge, Cyperus difformis); test: Test B flooded paddy test sedge, umbrella; settings: Table B, Flood, scale 0 to 100
Method: as §3

SMILES | Plant response rating, Ryegrass, Italian ([1]; 125 g ai/ha) | Plant response rating, Ryegrass, Italian ([1]; 500 g ai/ha) | Kochia plant response rating (kochia (Kochia scoparia) [2]; 125 g ai/ha) | Kochia plant response rating (kochia (Kochia scoparia) [2]; 500 g ai/ha) | Plant response rating, Ragweed ([3]; 125 g ai/ha) | Plant response rating, Ragweed ([3]; 500 g ai/ha) | Plant response rating, Pigweed ([4]; 125 g ai/ha) | Plant response rating, Pigweed ([4]; 500 g ai/ha) | Plant response rating, Kochia (kochia (Kochia scoparia) [5]; 125 g ai/ha) | Plant response rating, Kochia (kochia (Kochia scoparia) [5]; 500 g ai/ha) | Plant response rating, Wheat ([6]; 125 g ai/ha) | Plant response rating, Wheat ([6]; 500 g ai/ha) | Pigweed plant response rating ([7]; 125 g ai/ha) | Pigweed plant response rating ([7]; 500 g ai/ha) | Foxtail, Giant plant response rating ([8]; 125 g ai/ha) | Foxtail, Giant plant response rating ([8]; 500 g ai/ha) | Ryegrass, Italian plant response rating ([9]; 125 g ai/ha) | Ryegrass, Italian plant response rating ([9]; 500 g ai/ha) | Plant response rating, Foxtail, Giant ([10]; 125 g ai/ha) | Plant response rating, Foxtail, Giant ([10]; 500 g ai/ha) | other results
O=C1NCCC(c2cccc(OC(F)F)c2)C1C(=O)Nc1cccc(F)c1F (racemic) [Compound 46] | 0 | 0 | 0 | 0 | 0 | 0 | 0 | 0 | 0 | 0 | 0 | 50 | 0 | 0 | 90 | 90 | 0 | 20 | 20 | 80 | Plant response rating (rice (Oryza sativa); 500 g ai/ha): 0; Ragweed plant response rating ([11]; 125 g ai/ha): 0; Ragweed plant response rating ([11]; 500 g ai/ha): 0; Plant response rating ([12]; 500 g ai/ha): 65; Barnyardgrass plant response rating ([13]; 125 g ai/ha): 50; Barnyardgrass plant response rating ([13]; 500 g ai/ha): 90; Plant response rating, Galium ([14]; 125 g ai/ha): 0; Plant response rating, Galium ([14]; 500 g ai/ha): 0; Plant response rating, Blackgrass ([15]; 125 g ai/ha): 0; Plant response rating, Blackgrass ([15]; 500 g ai/ha): 40; Plant response rating, Corn (corn (Zea mays); 125 g ai/ha): 0; Plant response rating, Corn (corn (Zea mays); 500 g ai/ha): 50; Plant response rating ([16]; 500 g ai/ha): 100; Plant response rating, Barnyardgrass ([17]; 125 g ai/ha): 60; Plant response rating, Barnyardgrass ([17]; 500 g ai/ha): 90; Plant response rating ([18]; 500 g ai/ha): 0
O=C1NCCC(c2ccccc2C(F)(F)F)C1C(=O)Nc1cccc(F)c1F (racemic) [Compound 8] | 0 | 0 | 0 | 0 | 0 | 0 | 0 | 0 | 0 | 0 | 0 | 0 | 0 | 0 | 0 | 0 | 0 | 0 | 0 | 0 | Ragweed plant response rating ([11]; 125 g ai/ha): 0; Ragweed plant response rating ([11]; 500 g ai/ha): 0; Barnyardgrass plant response rating ([13]; 125 g ai/ha): 0; Plant response rating, Barnyardgrass ([13]; 500 g ai/ha): 0; Plant response rating, Galium ([14]; 125 g ai/ha): 0; Plant response rating, Galium ([14]; 500 g ai/ha): 0; Plant response rating, Blackgrass ([15]; 125 g ai/ha): 0; Plant response rating, Blackgrass ([15]; 500 g ai/ha): 0; Plant response rating, Corn (corn (Zea mays); 125 g ai/ha): 0; Plant response rating, Corn (corn (Zea mays); 500 g ai/ha): 0; Plant response rating, Barnyardgrass ([17]; 125 g ai/ha): 0; Plant response rating, Barnyardgrass ([17]; 500 g ai/ha): 0
CS(=O)(=O)c1ccccc1NC(=O)C1C(=O)NCCC1c1cccc(C(F)(F)F)c1 (racemic) [Compound 32] | 0 | 20 | 0 | 20 | 0 | 0 | 0 | 0 | 0 | 20 | 0 | 0 | 0 | 0 | 70 | 90 | 0 | 30 | 40 | 40 | Plant response rating (rice (Oryza sativa); 500 g ai/ha): 0; Ragweed plant response rating ([11]; 125 g ai/ha): 0; Ragweed plant response rating ([11]; 500 g ai/ha): 0; Plant response rating ([12]; 500 g ai/ha): 0; Barnyardgrass plant response rating ([13]; 125 g ai/ha): 20; Barnyardgrass plant response rating ([13]; 500 g ai/ha): 90; Plant response rating, Galium ([14]; 125 g ai/ha): 0; Plant response rating, Galium ([14]; 500 g ai/ha): 0; Plant response rating, Blackgrass ([15]; 125 g ai/ha): 0; Plant response rating, Blackgrass ([15]; 500 g ai/ha): 0; Plant response rating, Corn (corn (Zea mays); 125 g ai/ha): 0; Plant response rating, Corn (corn (Zea mays); 500 g ai/ha): 30; Plant response rating ([16]; 500 g ai/ha): 40; Plant response rating, Barnyardgrass ([17]; 125 g ai/ha): 60; Plant response rating, Barnyardgrass ([17]; 500 g ai/ha): 70; Plant response rating ([18]; 500 g ai/ha): 0
O=C1NCCC(c2cccc(C(F)F)c2)C1C(=O)Nc1ccc(F)c(F)c1F (centres unmarked) [Compound 47] | 0 | 20 | 0 | 0 | 0 | 0 | 0 | 0 | 0 | 0 | 0 | 30 | 0 | 0 | 80 | 90 | 0 | 40 | 70 | 80 | Plant response rating (rice (Oryza sativa); 250 g ai/ha): 0; Ragweed plant response rating ([11]; 125 g ai/ha): 0; Ragweed plant response rating ([11]; 500 g ai/ha): 0; Plant response rating ([12]; 250 g ai/ha): 0; Barnyardgrass plant response rating ([13]; 125 g ai/ha): 70; Barnyardgrass plant response rating ([13]; 500 g ai/ha): 90; Plant response rating, Galium ([14]; 125 g ai/ha): 0; Plant response rating, Galium ([14]; 500 g ai/ha): 0; Plant response rating, Blackgrass ([15]; 125 g ai/ha): 0; Plant response rating, Blackgrass ([15]; 500 g ai/ha): 0; Plant response rating, Corn (corn (Zea mays); 125 g ai/ha): 0; Plant response rating, Corn (corn (Zea mays); 500 g ai/ha): 0; Plant response rating ([16]; 250 g ai/ha): 50; Plant response rating, Barnyardgrass ([17]; 125 g ai/ha): 50; Plant response rating, Barnyardgrass ([17]; 500 g ai/ha): 90; Plant response rating ([18]; 250 g ai/ha): 0
O=C1NCCC(c2ccccc2C(F)(F)F)C1C(=O)Nc1ccccc1C(F)(F)F (racemic) [Compound 7] | 0 | 0 | 0 | 0 | 0 | 0 | 0 | 0 | 0 | 0 | 0 | 0 | 0 | 0 | 0 | 0 | 0 | 0 | 0 | 0 | Plant response rating (rice (Oryza sativa); 1000 g ai/ha): 0; Ragweed plant response rating ([11]; 125 g ai/ha): 0; Ragweed plant response rating ([11]; 500 g ai/ha): 0; Plant response rating ([12]; 1000 g ai/ha): 0; Barnyardgrass plant response rating ([13]; 125 g ai/ha): 0; Plant response rating, Barnyardgrass ([13]; 500 g ai/ha): 0; Plant response rating, Galium ([14]; 125 g ai/ha): 0; Plant response rating, Galium ([14]; 500 g ai/ha): 0; Plant response rating, Blackgrass ([15]; 125 g ai/ha): 0; Plant response rating, Blackgrass ([15]; 500 g ai/ha): 0; Plant response rating, Corn (corn (Zea mays); 125 g ai/ha): 0; Plant response rating, Corn (corn (Zea mays); 500 g ai/ha): 0; Plant response rating ([16]; 1000 g ai/ha): 0; Plant response rating, Barnyardgrass ([17]; 125 g ai/ha): 0; Plant response rating, Barnyardgrass ([17]; 500 g ai/ha): 0; Plant response rating ([18]; 1000 g ai/ha): 0
